Entries after “also recorded” stand apart in the source; their conditions may differ.
Assays:
[1] = system: VCAM-1, ICAM-1, IL-6, IL-1α and PPARs gene expression in the ascending aortic tissue; experiment: Expression of pro-inflammatory genes in ascending aortic tissue; format: in vivo, mice; conditions: vs vehicle
Experimental: (§1) Six-month old male apoE deficient mice (The Jackson Laboratory, Bar Harbor, Me.) fed a normal chow (Harlan Teklad diet #2018, Harlan Laboratories, Inc., Indianapolis, Ind.) were used in this study. Baseline blood pressure and body weight were measured before surgery. Animals were anesthetized by inhalation of 2% isoflurane. The left common carotid artery was carefully dissected via a midline neck incision under a dissecting microscope, and then ligated with a 6-0 silk ligature just proximal to its bifurcation. At the time of ligation, a minipump (model 2004, Durect Corp., Cupertino, Calif.) filled with Ang II (1.44 mg/Kg/day, Phoenix Pharmaceuticals, Burlingame, Calif.) was implanted subcutaneously. The animals were randomly divided into 2 groups; Vehicle: drinking water containing 5% hydroxypropyl-beta-cyclodextrin (HPBCD) or Compound 2 in drinking water containing 1.5 mg/mL Compound 2 in 5% HPBCD. Each experimental group included 11 animals. After 4 weeks of Ang II infusion, systolic blood pressure was measured in conscious mice using a tail-cuff system (Kent Scientific Corporation, Torrington, Conn.), and the animals were euthanized. Blood samples were collected via cardiac puncture for the measurement of a serum cholesterol profile (IDEXX Veterinary Services, West Sacramento, Calif.) and serum inflammatory panel (Murigenics, Hayward, Calif.) using a mouse cytokine/chemokine panel kit (Millipore, Billerica, Mass.), and tissues were removed for analysis (see below).
(§2) Using the animal model as reported in Martin-McNulty B, et al., 17 Beta-estradiol attenuates development of angiotensin II-induced aortic abdominal aneurysm in apolipoprotein E-deficient mice. Arterioscler Thromb Vasc Biol. 2003; 23(9):1627-1632 and Tham D M, et al., Angiotensin II is associated with activation of NF-kappaB-mediated genes and downregulation of PPARs. Physiol Genomics.

[2] = system: circulating IL-6, murine IL-8-KC, IL-1α, serum lipid; experiment: Serum inflammatory panel and serum lipid in Ang II infused apoE deficient mice; format: in vivo
Experimental: as §1, §2

[3] = system: angiotensin II infused apolipoprotein E deficient mice; experiment: Atherosclerotic lesion development in aortic arch and non-ligated right carotid artery of Ang II infused apoE deficient mice; format: in vivo; conditions: vs vehicle
Experimental: (§3) Six-month old apolipoprotein E deficient mice were chronically infused with angiotensin II (1.44 mg/Kg/day) for 4 weeks to induce an abdominal aortic aneurysm (AAA) and accelerate atherosclerosis development. The mice were treated with Compound 2 (1.5 g/L in drinking water) or vehicle for 4 weeks. […] These effects were associated with a reduction of serum lipid, IL-6, murine IL-8 KC and IL-1α, and down-regulation of gene expressions of ICAM-1, VCAM-1 and IL-6 in the arterial wall. […] The attendant down-regulation of inflammatory mediators and lipid lowering effects may both contribute to the observed vascular protective effects.
as §1, with “Blood samples were collected via cardiac puncture for the measurement of a serum cholesterol profile (IDEXX Veterinary Services, West Sacramento, Calif.) and serum inflammatory panel (Murigenics, Hayward, Calif.) using a mouse cytokine/chemokine panel kit (Millipore, Billerica, Mass.), and tissues were removed for analysis (see below).” left out

[4] = system: angiotensin II infused apolipoprotein E deficient mice; experiment: Ligation-induced vascular remodeling in the left carotid artery; format: in vivo
Experimental: as §1, with “Blood samples were collected via cardiac puncture for the measurement of a serum cholesterol profile (IDEXX Veterinary Services, West Sacramento, Calif.) and serum inflammatory panel (Murigenics, Hayward, Calif.) using a mouse cytokine/chemokine panel kit (Millipore, Billerica, Mass.), and tissues were removed for analysis (see below).” left out
Ligation of the left carotid arteries for four weeks induced vascular remodeling, including neointima formation and adventitial proliferation, leading to expansive remodeling as measured by enlargement of vessel diameter. […]

[5] = system: angiotensin II infused apolipoprotein E deficient mice; experiment: Angiotensin II-induced abdominal aortic aneurysm formation in apoE deficient mice; format: in vivo
Experimental: as §3, §1
Chronic infusion of Ang II induced aneurysm formation in the abdominal aorta in 7 of 11 (64%) control apoE deficient mice. Treatment with Compound 2 reduced the incidence of aneurysm formation to 18% (2 of 11). […] There was no type VI aneurysm found in this study.
There were foci of acute hemorrhage present in the intima. The intima was occasionally disrupted by plaques of Mac-3-positive foam cells on the luminal side of the internal elastic lamina. […] The thickness of the media was increased by extracellular matrix depositing between smooth muscle bundles and stained with trichrome as collagen. Elastin fibers in the media were discontinuous and irregularly oriented. The adventitia was markedly thickened by extracellular matrix that was predominately collagen. There was a modest increase in adventitial cellularity including fibroblasts and Mac-3-positive mononuclear cells. […] These vessels did have medial changes including collagen deposition and some increase in elastin fibers, but the internal elastic lamina generally remained intact and retained a distinctive media of smooth muscle.

[6] = ascending aortic tissue / arterial wall

## O=C(Nc1ccc(OC(F)(F)F)cc1)NC1CCN(C(=O)c2cccnc2)CC1 [Compound 2, 1-(1-nicotinoylpiperidin-4-yl)-3-(4-(trifluoromethoxy)phenyl)urea]
[1]; [6]
  ICAM-1 gene expression: down-regulation; also recorded: significantly reduced
  IL-6 gene expression: down-regulation; also recorded: significantly reduced
  VCAM-1 gene expression: down-regulation; also recorded: significantly reduced
[1]; ascending aortic tissue
  IL-1α gene expression: did not significantly affect
  PPARs gene expression: did not significantly affect
[2]; 4 weeks treatment
  serum lipid: reduction
[2]; vs vehicle group
  circulating protein level of IL-6: reduction; also recorded: significantly lower
  circulating protein level of murine IL-8-KC: reduction; also recorded: significantly lower
  serum IL-1α: reduction; also recorded: reduced
[3]; 1.5 g/L in drinking water, 4 weeks Ang II infusion
  atherosclerotic lesion area (overall): significantly reduced
[3]; 4 weeks
  atherosclerotic lesion size/area in the aortic arch: significantly reduced
[3]; non-ligated right carotid artery, 4 weeks
  atherosclerotic lesion size/area in the carotid artery: significantly reduced
[4]; Compound 2 vs vehicle group, four weeks
  average diameter of the ligated carotid arteries: not significantly different
[4]; left carotid artery ligated four weeks
  ligation-induced vascular remodeling (neointima formation, adventitial proliferation, expansive remodeling): not affected
[5]; 1.5 mg/mL in drinking water, 4 weeks, vs vehicle group
  average outer diameter of the suprarenal aorta: significantly smaller
[5]; 1.5 g/L in drinking water, 4 weeks Ang II infusion, vs vehicle
  AAA formation (rate), effect in words: significantly reduced; also recorded: partially prevented
[5]; Compound 2 1.5 mg/mL in drinking water (5% HPBCD), 4 weeks Ang II 1.44 mg/Kg/day, 2 of 11 mice, vehicle 64%
  incidence of aneurysm formation: 18%
[5]; mice that developed aneurysm, vehicle group majority type III
  aneurysm severity measured by category score: majority with type 0 and I
[5]; vs vehicle group (markedly thickened), 4 weeks
  adventitia thickness (histology): relatively thin
[5]; vs vehicle group, 4 weeks
  intimal plaques in aorta (histological staining): fewer intimal plaques
  macrophage and iron accumulation in the adventitia: less macrophage and no iron accumulation
  macrophage and iron accumulation in the intima (Mac-3, Prussian blue): no evidence of macrophage and iron accumulation
